The experiment has as its system primary ovarian cancer cells. Format: cell-based, human. To be noted: for growth of human primary ovarian cells: different concentrations, in vitro, n=12, Figure S1. The protocol:
Fresh primary ovarian tumor tissues that were assessed and classified as serous ovarian adenocarcinoma (III-IV grade) according to WHO criteria were collected from 53 ovarian cancer patients who underwent initial debulking surgery at the first affiliated hospital of Anhui Medical University between June 2012 and June 2014. All patients had not received adjuvant therapies, such as chemotherapy or radiotherapy, prior to surgery. For comparison, normal ovarian glandular epithelium cells (NOGECs) were cultured from fresh primary normal ovarian tissues harvested from 7 patients with uterine fibromas, which were confirmed as negative for any neoplastic disease by pathological examination. Prior to tissue deposition, all patients signed written consent forms confirming their donation of tissue for research purposes according to the Declaration of Helsinki. This study was approved by the Anhui Medical University Review Board. Tumor or normal ovarian tissues were cut into small 1.0 mm^3 pieces, rinsed two times in phosphate buffered saline (PBS) and digested with 0.25 % trypsin in a sterile centrifuge tube at 37 °C for 30 min. To obtain a single cell suspension cell, digested tissues were filtered with a 100 μm cell strainer. Cells were collected by centrifugation at 1000 rpm for five minutes, and the cell pellet was re-suspended in Dulbecco’s modified eagle medium (DMEM) supplemented with 10 % fetal bovine serum (FBS). Cells were subsequently cultured in DMEM containing 0.1 mg/L epidermal growth factor (EGF), 0.1 mg/L insulin-like growth factor (IGF) and 0.1 mg/L beta-estradiol with 10 % FBS in 5 % CO2 at 37 °C. Once cells reached 70 to 80 % confluence, cell culture medium was drained from the flask, and cells were digested with 0.25 % collagenase II until approximately 1/3 of the cells fell to the bottom of the dish by eye using a microscope. Due to their initial shedding, most fibroblasts were eliminated by collagenase digestion. The remaining cells were cultured in 5 % CO2 at 37 °C. To determine purity, cells were analyzed using immunofluorescence of cytokeratin 7 (for ovarian cancer cells) or cytokeratin 19 (for normal ovarian epithelium cells).
Primary ovarian cancer cells were seeded into 96-well plates in sextuplicate at a starting density of 5 × 10^3 cells/well and incubated with ACFP at the concentrations: 0 (as control), 5 × 10^−6, 5 × 10^−5, 5 × 10^−4, 5 × 10^−3, 5 × 10^−2, 5 × 10^−1 and 5 g/L for 24, 48 and 72 h, respectively. Cells treated with paclitaxel at 5 × 10^−4 g/L were included in the same plate as a positive control. Cell viability was later measured using the WST-1 (water-soluble tetrazolium 1) cell viability and cytotoxicity assay kit (Beyotime, Haimen, China) according to the manufacturer’s instructions. The percent viability of cells was calculated using the formula to calculate the cell viability ratio (VR): VR (%) = (the experimental group A450nm value/control group A450nm value) × 100 %. To assess general toxicity of ACFP, viability of normal ovarian cells treated with ACFP was assayed using the same procedure. The effect of ACFP was compared with LfcinB and PGPIPN (the products of Shanghai Sangon Biological Engineering Technology, China). Each experiment was performed in two independent sets.

The structures appear in SMILES notation. In brackets after ≈: the same amount, converted by molar mass. Like-named read-outs stand apart in the source and are kept apart here. Residues, ends and D or L forms follow the SMILES beside them.

On to `CC[C@H](C)[C@H](NC(=O)[C@@H]1CCCN1C(=O)CNC(=O)[C@@H]1CCCN1)C(=O)N1CCC[C@H]1C(=O)N[C@@H](CC(N)=O)C(=O)O` [PGPIPN] (H-PGPIPN-OH), for which the “IC50, cell viability” value (24 h) amounted to 14.5 µg/mL (≈ 24.4 µM); the “IC50, cell viability” value (48 h) was 9.3 µg/mL (≈ 15.7 µM); the “IC50, cell viability” value (72 h) was 1.24 µg/mL (≈ 2.09 µM). For the same molecule, the “growth of human primary ovarian cells” value (48 h) is “decreased growth”.
Take `CC[C@H](C)[C@@H]1NC(=O)[C@H](CO)NC(=O)[C@@H]2CCCN2C(=O)[C@H](C)NC(=O)CNC(=O)[C@H](CC(C)C)NC(=O)[C@H](CCCCN)NC(=O)[C@H](CCCCN)NC(=O)[C@H](CCSC)NC(=O)[C@H](CCCNC(=N)N)NC(=O)[C@H](Cc2c[nH]c3ccccc23)NC(=O)[C@H](CCC(N)=O)NC(=O)[C@H](Cc2c[nH]c3ccccc23)NC(=O)[C@H](CCCNC(=N)N)NC(=O)[C@H](CCCNC(=N)N)NC(=O)[C@@H](NC(=O)[C@H](CCCCN)NC(=O)[C@@H](N)Cc2ccccc2)CSSC[C@@H](C(=O)N[C@H](C(=O)N[C@@H](CCCNC(=N)N)C(=O)N[C@@H](CCCNC(=N)N)C(=O)N[C@@H](C)C(=O)N[C@@H](Cc2ccccc2)C(=O)O)C(C)C)NC(=O)[C@H]([C@@H](C)O)NC1=O` [LfcinB]: the “growth of human primary ovarian cells” value (48 h) is listed as “decreased growth”.

The values above are taken from paper PMC4806491, “The milk-derived fusion peptide, ACFP, suppresses the growth of primary human ovarian cancer cells by regulating apoptotic gene expression and signaling pathways” (BMC Cancer, 2016).
